Values quoted from earlier work in patent US20220401441A1, “PHARMACEUTICAL COMPOSITION COMPRISING SELEXIPAG” (ACTELION PHARMACEUTICALS LTD, priority 2019, published 2022).

System: patients with pulmonary arterial hypertension
Conditions: selexipag versus placebo

For CC(C)N(CCCCOCC(=O)NS(C)(=O)=O)c1cnc(-c2ccccc2)c(-c2ccccc2)n1 [selexipag, 2-{4-[N-(5,6-diphenylpyrazin-2-yl)-N-isopropylamino]butyloxy}-N-(methylsulfonyl)acetamide], the “risk of the primary composite end point of death or a complication related to pulmonary arterial hypertension” value is given as “significantly lower”.
